# Test system: HLA-A*24
# Assay: MHC binding assay: UV-ligand exchange with beta2m ELISA (peptide exchange yield)
# Design: species or system human
# Details: Table 11, binding to HLA-A*24, UV-ligand exchange
# How it was run: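 Peptide-MHC complexes generated by UV-induced exchange of a photocleavable ligand with the test peptide; exchange yield quantified by streptavidin-capture ELISA detecting β2m (HRP anti-β2m, TMB, A450). Samples diluted 100-fold, with refolded HLA-A*02:01/MLA-001 monomers (15-500 ng/ml) as standards.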
row,Substance,"Peptide exchange (MHC class I binding score, peptide exchange yield)"
1,245 (VLPLHFLPF; listed as Homo sapiens) [compound 245],++++ (>75% = ++++)
2,296 (YQRPDLLLF; listed as Homo sapiens) [compound 296],++ (>20% = ++)
3,129 (IYVSLAHVL; listed as Homo sapiens) [compound 129],++++ (>75% = ++++)
4,387 (THAGVRLYF; listed as Homo sapiens) [compound 387],++ (>20% = ++)
5,140 (IFQHFCEEI; listed as Homo sapiens) [compound 140],++ (>20% = ++)
6,345 (RYLEEHTEF; listed as Homo sapiens) [compound 345],++++ (>75% = ++++)
7,213 (FYNRLTKLF; listed as Homo sapiens) [compound 213],++++ (>75% = ++++)
8,2 (LYAPTILLW; listed as Homo sapiens) [compound 2],++++ (>75% = ++++)
9,239 (IYTFSNVTF; listed as Homo sapiens) [compound 239],++++ (>75% = ++++)
10,336 (VYSDLHAFY; listed as Homo sapiens) [compound 336],++++ (>75% = ++++)
11,175 (SYFEYRRLL; listed as Homo sapiens) [compound 175],++ (>20% = ++)
12,224 (AYLQFLSVL; listed as Homo sapiens) [compound 224],++++ (>75% = ++++)
13,355 (VYNNNSSRF; listed as Homo sapiens) [compound 355],++++ (>75% = ++++)
14,464 (VGGNVTSSF; listed as Homo sapiens) [compound 464],+++ (>50 = +++)
15,252 (RYLIIKYPF; listed as Homo sapiens) [compound 252],+++ (>50 = +++)
16,27 (LSCTATPLF; listed as Homo sapiens) [compound 27],+++ (>50 = +++)
17,291 (YTRLVLQF; listed as Homo sapiens) [compound 291],++ (>20% = ++)
18,25 (MLPEASLLI; listed as Homo sapiens) [compound 25],++++ (>75% = ++++)
19,60 (RYSPVKDAW; listed as Homo sapiens) [compound 60],++++ (>75% = ++++)
20,45 (YGQSKPWTF; listed as Homo sapiens) [compound 45],++ (>20% = ++)
21,123 (FFLQESPVF; listed as Homo sapiens) [compound 123],++++ (>75% = ++++)
22,174 (TYGEEMPEEI; listed as Homo sapiens) [compound 174],++ (>20% = ++)
23,40 (NYPEGAAYEF; listed as Homo sapiens) [compound 40],++++ (>75% = ++++)

row,Substance,"Peptide exchange (MHC class I binding score, peptide exchange yield)"
1,250 (VYSDRQIYLL; listed as Homo sapiens) [compound 250],++++ (>75% = ++++)
2,170 (IFIPATILL; listed as Homo sapiens) [compound 170],++++ (>75% = ++++)
3,42 (VYDSIWCNM; listed as Homo sapiens) [compound 42],++++ (>75% = ++++)
4,228 (VYLRIGGF; listed as Homo sapiens) [compound 228],++ (>20% = ++)
5,146 (NYFLDPVTI; listed as Homo sapiens) [compound 146],+++ (>50 = +++)
6,210 (EAYSYPPATI; listed as Homo sapiens) [compound 210],+++ (>50 = +++)
7,215 (KASKITFHW; listed as Homo sapiens) [compound 215],++ (>20% = ++)
8,278 (TYESVVTGFF; listed as Homo sapiens) [compound 278],++ (>20% = ++)
9,67 (SYVLQIVAI; listed as Homo sapiens) [compound 67],+++ (>50 = +++)
10,9 (TYINSLAIL; listed as Homo sapiens) [compound 9],++++ (>75% = ++++)
11,375 (YYAADQWVF; listed as Homo sapiens) [compound 375],++++ (>75% = ++++)
12,185 (LYICKVELM; listed as Homo sapiens) [compound 185],++++ (>75% = ++++)
13,133 (FFYVTETTF; listed as Homo sapiens) [compound 133],++++ (>75% = ++++)
14,332 (VYCSLDKSQF; listed as Homo sapiens) [compound 332],++++ (>75% = ++++)
15,343 (EYQQYHPSL; listed as Homo sapiens) [compound 343],++++ (>75% = ++++)
16,144 (LFDHGGTVFF; listed as Homo sapiens) [compound 144],+++ (>50 = +++)
17,235 (VYISDVSVY; listed as Homo sapiens) [compound 235],++++ (>75% = ++++)
18,353 (AAFPGAFSF; listed as Homo sapiens) [compound 353],++ (>20% = ++)
19,294 (KMGRIVDYF; listed as Homo sapiens) [compound 294],++++ (>75% = ++++)
20,323 (NYSPVTGKF; listed as Homo sapiens) [compound 323],++++ (>75% = ++++)
21,172 (RYFIAAEKILW; listed as Homo sapiens) [compound 172],++++ (>75% = ++++)
22,176 (TQAGEYLLF; listed as Homo sapiens) [compound 176],++++ (>75% = ++++)
23,333 (RYADLLIYTY; listed as Homo sapiens) [compound 333],++++ (>75% = ++++)

row,Substance,"Peptide exchange (MHC class I binding score, peptide exchange yield)"
1,130 (RPEKVFVF; listed as Homo sapiens) [compound 130],++ (>20% = ++)
2,227 (YLPNPSLNAF; listed as Homo sapiens) [compound 227],++ (>20% = ++)
3,303 (RFLDRGWGF; listed as Homo sapiens) [compound 303],++++ (>75% = ++++)
4,20 (ELMAHPFLL; listed as Homo sapiens) [compound 20],++ (>20% = ++)
5,346 (TYIDFVPYI; listed as Homo sapiens) [compound 346],++++ (>75% = ++++)
6,371 (FRSWAVQTF; listed as Homo sapiens) [compound 371],++ (>20% = ++)
7,202 (VYDTMIEKFA; listed as Homo sapiens) [compound 202],++ (>20% = ++)
8,240 (RVHANPLLI; listed as Homo sapiens) [compound 240],+ (>10% = +)
9,116 (TYFFVANKY; listed as Homo sapiens) [compound 116],+ (>10% = +)
10,386 (YQSRDYYNF; listed as Homo sapiens) [compound 386],++++ (>75% = ++++)
11,156 (IYPHGVTFSP; listed as Homo sapiens) [compound 156],+ (>10% = +)
12,378 (VYAVISNIL; listed as Homo sapiens) [compound 378],++++ (>75% = ++++)
13,180 (IYNKTKMAF; listed as Homo sapiens) [compound 180],++++ (>75% = ++++)
14,138 (MMVTVVALF; listed as Homo sapiens) [compound 138],+++ (>50 = +++)
15,238 (YTCSRAVSLF; listed as Homo sapiens) [compound 238],++ (>20% = ++)
16,163 (YYIGIVEEYW; listed as Homo sapiens) [compound 163],++++ (>75% = ++++)
17,328 (IYLVGGYSW; listed as Homo sapiens) [compound 328],++++ (>75% = ++++)
18,153 (AWSPPATLF; listed as Homo sapiens) [compound 153],++++ (>75% = ++++)
19,383 (PYFSPSASF; listed as Homo sapiens) [compound 383],++++ (>75% = ++++)
20,17 (IYPEAIATL; listed as Homo sapiens) [compound 17],++++ (>75% = ++++)
21,370 (TQMDVKLVF; listed as Homo sapiens) [compound 370],++ (>20% = ++)
22,150 (FIPVAWLIF; listed as Homo sapiens) [compound 150],+++ (>50 = +++)
23,322 (SFISPRYSWLF; listed as Homo sapiens) [compound 322],++++ (>75% = ++++)

# Source: patent US12060400B2, “Peptides for use in immunotherapy against cancers” (Immatics Biotechnologies GmbH, priority 2018, dated 2024)
